Experimental data reported in ChEMBL document CHEMBL5143515, “Identification of new halogen-containing 2,4-diphenyl indenopyridin-5-one derivative as a boosting agent for the anticancer responses of clinically available topoisomerase inhibitors” (Eur J Med Chem, 2022).
Active and inactive are the calls of the source. No cut-off for these calls is given here.

How the values were obtained:
[1] = Toxicity in mouse assessed as increase in d red cell distribution width at 4 mg/kg; format: organism-based; details: in vivo
HCT-15 [2] = assay: Antiproliferative activity against human HCT-15 cells after 72 hrs by EZ-Cytox colorimetric assay; format: functional, cell-based; details: HCT-15, 72 h
[3] = Genotoxicity in human HCT-15 cells assessed as production of fragmented DNA tails at 2 to 5 uM and measured by comet assay; format: toxicity, cell-based; details: hct-15, 5 µM, dose 2-5 µM
HCT-15 [4] = assay: Induction of apoptosis in human HCT-15 cells assessed as change in c-PARP level at 2 to 5 uM in presence of 0.2 uM etoposide and measured by Western blot analysis; format: functional, cell-based; details: dose 2-5 µM
[5] = Toxicity in mouse assessed as increase in mean corpuscular volume of RBC at 4 mg/kg; format: organism-based, Erythrocyte; details: in vivo
[6] = Toxicity in mouse assessed as reduction in hemoglobin level at 4 mg/kg administered in combination with 2 mg/kg etoposide; format: organism-based; details: in vivo
DU-145 = assay: Antiproliferative activity against human DU-145 cells after 72 hrs by EZ-Cytox colorimetric assay; format: functional, cell-based; details: DU-145, 72 h
HCT-15 [7] = assay: Antitumor activity against human HCT-15 cells xenografted in female BALB/c nude mouse assessed as decrease in Ki67 expression at 4 mg/kg, ip administered every day for 6 days in combination with etoposide at 2 mg/kg, ip administered every day for 6 days measured by immunohistochemistry analysis; format: functional, organism-based; details: time 6.0 day
[8] = Genotoxicity in human HCT-15 cells assessed as production of Ub1-gamma-H2AX at 2 to 5 uM and measured in presence of 0.2 uM etoposide by western blot analysis; format: toxicity, cell-based; details: hct-15, 5 µM, dose 2-5 µM
HCT-15 [9] = assay: Induction of apoptosis in human HCT-15 cells assessed as change in c-caspase 7 level at 2 to 5 uM in presence of 1 nM camptothecin and measured by Western blot analysis; format: functional, cell-based; details: dose 2-5 µM
HCT-15 [10] = assay: Synergistic antiproliferative activity against human HCT-15 cells at 5 uM in presence of 1 nM camptothecin after 72 hrs by WST-1 assay; format: functional, cell-based
[11] = Genotoxicity in human HCT-15 cells assessed as production of Ub1-gamma-H2AX at 2 to 5 uM and measured by western blot analysis; format: toxicity, cell-based; details: hct-15, 5 µM, dose 2-5 µM

For O=C1c2ccccc2-c2nc(-c3ccc(Br)cc3)cc(-c3ccccc3)c21, the Activity [1] was “Non-Toxic”, the IC50 (HCT-15 [2]) was 7.84 µM and the Activity [3] was “Non-Toxic”. For the same compound, the Activity (HCT-15 [4]) was “Active”, the Activity [5] was “Non-Toxic” and the Activity [6] was “Non-Toxic”. The IC50 (DU-145) was 4.84 µM, the Activity (HCT-15 [7]) was “Active” and the Activity [8] was “Non-Toxic”. The Activity (HCT-15 [9]) was “Active”, the Activity (HCT-15 [10]) was “Active” and the Activity [11] was “Non-Toxic”.
